This passage reports AC50, EC50 and IC50 results from ChEMBL document CHEMBL1201862, “PubChem BioAssay data set” (2004).

The nature of test [1]: cytotoxicity in OVCAR8 ovarian cancer cells, dose response, PAX8 project, cell-based, plate reader, dry powder samples (AID 743197). The format is functional. The settings on record: OVCAR-8.
A short description of test [2]: IGROV1 ovarian cancer cell cytotoxicity, dose response, PAX8 inhibitor project, plate reader, dry powder samples (AID 743043). The settings on record: IGROV-1. The format is functional, cell-based.
Test [3] in a line: non-specific cell cytotoxicity, dose response, cytotoxicity control for PAX8 inhibitor project, plate reader, dry powder samples (AID 743021). It counts as functional, cell-based.
A further test has as its target Paired box protein Pax-8 (Homo sapiens, UniProt Q06710). Kind of test: inhibitors of PAX8-driven TPO luciferase reporter, dose response, RMG-I cells, cherry-pick (AID 687027).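 Note: luciferase reporter driven by Pax8 target thyroperoxidase promoter measured by SteadyGlo luminescence.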 It counts as functional, cell-based. In general terms: In a reporter assay the amount or activity of a reporter protein is the signal.
The nature of test [4]: A2780 ovarian cancer cell cytotoxicity, dose response, cytotoxicity control, plate reader, dry powder samples (AID 743046). It counts as functional, cell-based.
Test [5] can be described thus: NIH:OVCAR-3 ovarian cancer cell cytotoxicity, dose response, PAX8 inhibitor project, plate reader, dry powder samples (AID 743044). The format is functional, cell-based.
Test [6] is described as follows: PAX5 activity inhibitors, dose response, selectivity assay for PAX8 inhibitor project, cell-based, plate reader, dry powder samples (AID 743047).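 Note: HEK293 cells carrying a Pax5 driven CD19 promoter luciferase reporter; potency of inhibitors that lower reporter luminescence.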 It counts as functional.
Test [7] is described as follows: cytotoxicity in OV-90 ovarian cancer cells, dose response, PAX8 inhibitor project, cell-based, plate reader, dry powder, SA8 (AID 743149). The format is functional.
The nature of test [8]: cytotoxicity in COV362 ovarian cancer cells, dose response, cytotoxicity control for PAX8 inhibitor project, cell-based, plate reader, dry powder, SA12 (AID 743144). The format is functional.
The nature of test [9]: cytotoxicity dependent on PAX8, dose response, cell-based, plate reader, dry powder (AID 743049). It counts as functional.
The nature of test [10]: PAX2 cell-based inhibition, dose response, selectivity assay for PAX8 inhibitor project, plate reader, dry powder samples (AID 743048).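 Note: HEK293 cells carrying a WT1 promoter luciferase reporter driven by expressed Pax2; potency is for inhibition of Pax2 driven reporter signal.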 It counts as functional.
Test [11] in a line: cytotoxicity in COV434 cells, dose response, cytotoxicity control for PAX8 inhibitor project, cell-based, plate reader, dry powder, SA7 (AID 743145). It counts as functional.
The target of test [12] is Metabotropic glutamate receptor 5 (Rattus norvegicus, UniProt P31424). As to the kind of experiment: Identification of a glycine sulfonamide based non-MPEP site positive allosteric potentiator (PAM) of mGlu5 (calcium_assay). It counts as functional.
Test [13] has as its target NAD-dependent protein deacylase sirtuin-5, mitochondrial (Homo sapiens, UniProt Q9NXA8). Kind of test: SIRT5 deacylase inhibitors, dose response, biochemical, fluorescence imaging, cherry-pick, set 6 (AID 720597).
The target of test [14] is Potassium channel subfamily K member 3 (Homo sapiens, UniProt O14649). As to the kind of experiment: TASK1 (KCNK3) potassium channel inhibitors, SAR follow-up, CHO cells, FluxOR thallium flux (AID 652212). The format is functional.
Test [15] in a line: HEK293 cell cytotoxicity, dose response, cytotoxicity control, cherry-picks, set 5 (AID 1053117). It counts as functional, cell-based.
The nature of test [16]: inhibitors of fibronectin matrix deposition, dose response, AH1F cells, Alexa488-FN fluorescence, cherry-picks (AID 1035475). It counts as functional, cell-based.
In test [17] the target is Endoplasmic reticulum aminopeptidase 1 (Homo sapiens, UniProt Q9NZ08). As to the kind of experiment: ERAP1 aminopeptidase inhibitors, dose response, biochemical, cherry-pick, set 2, plate reader (AID 743314).
The nature of test [18]: MITF Orthogonal Assay: SK-MEL-5 CTG Assay Measured in Cell-Based System Using Plate Reader - 2084-02_Inhibitor_Dose_DryPowder_Activity_Set7. It counts as functional.
Test [19] is described as follows: MITF: Counter assay: A375 proliferation Measured in Cell-Based System Using Plate Reader - 2084-03_Inhibitor_Dose_DryPowder_Activity_Set8. The format is functional. The settings on record: A-375.
Test [20] in a line: TRPM1 promoter luciferase reporter signal decrease, dose response, MITF inhibitor project, cell-based, SK-MEL-5, dry powder, set 8 (AID 624430). The format is functional.
A short description of test [21]: HEK293T cell cytotoxicity, dose response, cytotoxicity control, luminescence plate reader, powder samples, set 4 (AID 651863). The settings on record: HEK293. The format is functional, cell-based.
Test [22] is described as follows: P. falciparum 3D7-ScDHODH growth inhibitors, dose response, SYBR Green, dry powder samples (AID 1159570).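 Note: parasite growth measured after 72 hours of compound exposure.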 It counts as functional, cell-based.
Test [23] is described as follows: P. falciparum ATP4 D1247Y mutant growth inhibitors, dose response, NITD609-resistant line, SYBR Green, dry powder (AID 1159571).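 Note: parasites synchronized at ring stage by sorbitol before testing.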 The format is functional, cell-based.
Test [24] is described as follows: HepG2 cell cytotoxicity, dose response, cytotoxicity control, plate reader, dry powder samples (AID 1159569).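 Note: inhibitor potency with signal falling toward the positive control level.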 It counts as functional, cell-based.
Test [25] in a line: HepG2 cell cytotoxicity, dose response, cytotoxicity control, cherry-picked samples (AID 1159577). The format is functional, cell-based.
Test [26] is described as follows: P. falciparum Dd2 growth inhibitors, dose response, SYBR Green, dry powder samples (AID 1159566).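 Note: potency for growth inhibition with lower SYBR green DNA signal.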 It counts as functional, cell-based.
Test [27] can be described thus: P. falciparum Dd2 growth inhibitors, dose response, SYBR Green, cherry-picked samples (AID 1159567). The format is functional, cell-based.
Test [28] is described as follows: HeLa 4N DNA content increase, dose response, cell-based, IC50 (AID 1117351). The format is functional.
A short description of test [29]: HeLa 2N DNA content increase, dose response, cell-based, IC50 (AID 1117349). It counts as functional.
Another test is described as follows: cells. It counts as functional, cell-based. The settings on record: INS-1E.

Counter-ions that a name gives are not always drawn. Active and inactive are the calls of the source. A value given as a limit tells only on which side of the number the result lay.

Chain of Paired box protein Pax-8 (Q06710 whole entry): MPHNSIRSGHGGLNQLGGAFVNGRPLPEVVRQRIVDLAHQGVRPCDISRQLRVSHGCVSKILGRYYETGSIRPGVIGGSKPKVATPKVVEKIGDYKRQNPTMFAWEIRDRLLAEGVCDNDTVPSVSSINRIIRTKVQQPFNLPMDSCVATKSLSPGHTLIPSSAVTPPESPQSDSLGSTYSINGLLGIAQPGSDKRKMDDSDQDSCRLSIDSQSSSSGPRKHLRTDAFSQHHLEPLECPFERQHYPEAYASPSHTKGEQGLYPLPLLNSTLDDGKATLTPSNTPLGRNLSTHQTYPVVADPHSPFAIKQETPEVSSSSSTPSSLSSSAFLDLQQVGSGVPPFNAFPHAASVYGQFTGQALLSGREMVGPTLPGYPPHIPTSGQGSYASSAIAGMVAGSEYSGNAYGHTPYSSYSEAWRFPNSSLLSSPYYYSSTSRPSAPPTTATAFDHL
Chain of Potassium channel subfamily K member 3 (O14649 whole entry): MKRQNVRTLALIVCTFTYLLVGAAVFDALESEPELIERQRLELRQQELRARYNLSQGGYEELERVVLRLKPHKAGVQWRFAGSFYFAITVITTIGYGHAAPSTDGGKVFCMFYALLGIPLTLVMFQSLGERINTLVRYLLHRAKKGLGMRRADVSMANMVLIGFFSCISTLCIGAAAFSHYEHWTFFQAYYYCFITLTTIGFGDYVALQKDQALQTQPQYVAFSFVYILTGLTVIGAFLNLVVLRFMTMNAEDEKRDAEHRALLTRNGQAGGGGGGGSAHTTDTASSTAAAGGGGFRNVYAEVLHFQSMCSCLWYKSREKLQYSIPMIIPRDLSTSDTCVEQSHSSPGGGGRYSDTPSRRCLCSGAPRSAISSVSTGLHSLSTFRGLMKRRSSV
Chain of NAD-dependent protein deacylase sirtuin-5, mitochondrial (Q9NXA8 whole entry): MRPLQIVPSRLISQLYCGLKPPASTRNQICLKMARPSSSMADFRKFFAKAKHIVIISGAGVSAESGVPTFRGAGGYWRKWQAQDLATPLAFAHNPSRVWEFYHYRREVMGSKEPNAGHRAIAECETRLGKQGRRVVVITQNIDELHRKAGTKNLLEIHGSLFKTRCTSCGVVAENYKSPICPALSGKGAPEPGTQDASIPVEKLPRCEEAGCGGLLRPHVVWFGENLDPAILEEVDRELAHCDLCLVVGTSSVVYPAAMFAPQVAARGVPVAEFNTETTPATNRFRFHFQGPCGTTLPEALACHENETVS
Chain of Endoplasmic reticulum aminopeptidase 1 (Q9NZ08 whole entry): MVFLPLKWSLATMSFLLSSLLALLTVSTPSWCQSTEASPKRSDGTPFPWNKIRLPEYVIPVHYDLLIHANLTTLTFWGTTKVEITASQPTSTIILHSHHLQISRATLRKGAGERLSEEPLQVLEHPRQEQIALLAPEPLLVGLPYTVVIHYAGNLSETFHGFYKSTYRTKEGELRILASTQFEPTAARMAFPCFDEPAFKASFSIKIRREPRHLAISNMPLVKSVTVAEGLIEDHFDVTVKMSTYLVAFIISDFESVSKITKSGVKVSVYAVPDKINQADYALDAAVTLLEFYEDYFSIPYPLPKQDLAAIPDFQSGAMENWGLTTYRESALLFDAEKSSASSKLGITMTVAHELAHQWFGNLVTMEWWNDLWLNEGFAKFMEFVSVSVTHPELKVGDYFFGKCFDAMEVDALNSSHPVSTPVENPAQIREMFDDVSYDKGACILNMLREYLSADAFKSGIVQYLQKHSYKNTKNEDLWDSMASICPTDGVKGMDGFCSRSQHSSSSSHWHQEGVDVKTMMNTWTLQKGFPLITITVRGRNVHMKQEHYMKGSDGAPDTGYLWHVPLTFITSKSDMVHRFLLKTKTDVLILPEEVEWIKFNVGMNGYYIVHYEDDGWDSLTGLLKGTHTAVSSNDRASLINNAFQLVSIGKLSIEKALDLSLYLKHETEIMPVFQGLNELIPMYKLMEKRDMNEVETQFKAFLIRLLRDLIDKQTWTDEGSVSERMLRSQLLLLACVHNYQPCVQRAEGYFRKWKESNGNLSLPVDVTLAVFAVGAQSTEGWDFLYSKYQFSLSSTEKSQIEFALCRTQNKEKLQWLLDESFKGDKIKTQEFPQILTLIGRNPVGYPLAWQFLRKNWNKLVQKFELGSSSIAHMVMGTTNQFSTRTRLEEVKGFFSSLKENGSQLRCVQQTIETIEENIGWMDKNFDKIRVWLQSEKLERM
Chain of Metabotropic glutamate receptor 5 (P31424 whole entry): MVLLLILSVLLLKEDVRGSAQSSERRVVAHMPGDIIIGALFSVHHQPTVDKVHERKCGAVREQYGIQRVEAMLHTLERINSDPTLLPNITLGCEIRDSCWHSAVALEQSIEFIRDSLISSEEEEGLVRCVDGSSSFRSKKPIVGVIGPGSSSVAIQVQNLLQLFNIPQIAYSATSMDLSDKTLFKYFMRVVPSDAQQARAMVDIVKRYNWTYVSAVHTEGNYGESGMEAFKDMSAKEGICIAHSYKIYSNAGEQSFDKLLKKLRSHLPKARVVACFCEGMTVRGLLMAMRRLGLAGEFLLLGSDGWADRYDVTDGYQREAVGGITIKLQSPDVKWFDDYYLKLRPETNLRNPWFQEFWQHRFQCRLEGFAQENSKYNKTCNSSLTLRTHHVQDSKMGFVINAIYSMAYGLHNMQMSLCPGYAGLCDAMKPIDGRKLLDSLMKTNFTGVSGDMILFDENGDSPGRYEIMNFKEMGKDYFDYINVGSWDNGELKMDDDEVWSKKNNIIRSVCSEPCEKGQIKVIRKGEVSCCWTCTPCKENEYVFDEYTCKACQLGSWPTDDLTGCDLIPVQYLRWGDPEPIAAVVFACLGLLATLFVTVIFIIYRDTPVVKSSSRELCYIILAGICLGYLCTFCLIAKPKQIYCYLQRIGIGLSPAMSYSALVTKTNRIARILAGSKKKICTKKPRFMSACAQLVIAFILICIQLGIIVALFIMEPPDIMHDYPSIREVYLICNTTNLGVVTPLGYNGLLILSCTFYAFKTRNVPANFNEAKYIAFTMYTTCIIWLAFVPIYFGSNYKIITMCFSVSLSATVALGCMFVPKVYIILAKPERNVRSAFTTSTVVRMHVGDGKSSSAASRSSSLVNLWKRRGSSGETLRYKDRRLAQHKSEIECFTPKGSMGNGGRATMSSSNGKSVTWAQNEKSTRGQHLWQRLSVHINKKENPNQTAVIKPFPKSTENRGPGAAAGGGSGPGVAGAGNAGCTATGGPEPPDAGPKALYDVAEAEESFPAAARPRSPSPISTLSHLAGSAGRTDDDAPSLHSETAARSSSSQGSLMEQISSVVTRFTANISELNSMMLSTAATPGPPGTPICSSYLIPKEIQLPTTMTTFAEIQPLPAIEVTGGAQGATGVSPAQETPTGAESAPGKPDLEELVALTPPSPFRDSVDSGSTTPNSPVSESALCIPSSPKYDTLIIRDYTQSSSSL

The AC50 is the midpoint of the concentration-response curve, whichever way the signal moves. Take `COc1ccc(S(=O)(=O)Nc2ccc3c(c2)C(=O)N([C@H](C)CO)C[C@H](C)[C@@H](CN(C)S(=O)(=O)c2ccc(Cl)cc2)OCCCC[C@H](C)O3)cc1`: the AC50 in test [1] was > 70 µM (inactive); in [2], 24.8 µM (active); in test [3], 51.9 µM (active); at Paired box protein Pax-8 it was 7.7 µM (active); in test [4], 21.4 µM (active); in test [5] it was 16 µM (active).
Consider `N#C[C@H]1[C@H](c2ccc(C#CC3CCCC3)cc2)[C@@H](CO)N1C(=O)Nc1ccc(F)cc1`, for which the half-maximal activity concentration (AC50) in test [6] is 7.84 µM (active); in test [7] it was 29 µM (active); in test [1], 27.2 µM (active); in test [8], 32.1 µM (active); in test [9], 19.1 µM (active); in [10] it was 7.21 µM (active). Also, the concentration at half-maximal activity (AC50) at Paired box protein Pax-8 was 5.59 µM (active); in [11], 20.4 µM (active); in [5], 42.8 µM (active).
As usually defined, the EC50 is the concentration at which the effect is half-maximal. Consider `CC(C)(C)NC(=O)CN(c1cc(C(F)(F)F)ccc1Cl)S(C)(=O)=O`, for which the EC50 in [12] was > 30 µM (inactive).
`C[C@H](CO)N1C[C@H](C)[C@H](CN(C)Cc2ccncc2)Oc2ncc(C#CCN(C)C)cc2C1=O`: the AC50 in test [13] is > 30 µM (inactive).
As usually defined, the IC50 is the point on the concentration scale where inhibition reaches its midpoint. Consider `CCOc1ccccc1NC(=O)c1cccc(NC(=O)c2ccc(OC)cc2)c1`, for which the IC50 in [14] is 0.3 µM (active).
As to `O=S(=O)(c1cccc(F)c1)N1CC[C@H]2[C@H](CO)Nc3ccc(-c4cccc(F)c4)cc3[C@H]21`, the AC50 in test [15] is > 52 µM (inactive); in test [16] it was 41.9 µM (active).
In the case of `CCNC(=O)[C@@H]1[C@@H](CO)[C@@H]2Cn3c(ccc(/C=C/c4ccccc4)c3=O)[C@H]1N2C(=O)C1CCCC1`, the AC50 in test [17] is 9.24 µM (active).
Turning to `CN1CCN(C2=C(Nc3ccc(I)cc3)C(=O)c3ccccc3C2=O)CC1`, the values for the AC50 in test [18], in [19] and in test [20] were 8.33 µM (active), 26 µM (active) and 7.32 µM (active), respectively.
Regarding `CCOC(=O)C(C(=O)OCC)c1cc(CNS(=O)(=O)c2ccc(C)cc2C)c2ccccc2n1`, the AC50 in test [21] is > 52 µM (inactive).
On to `Cc1cccc(S(=O)(=O)N2C[C@@H]3N[C@H](C2)[C@H]3c2ccc(-c3ccncc3)cc2)c1`, for which the AC50 in test [22] was 2.12 µM (active); in [23] it was 3.58 µM (active); in test [24], 41.5 µM (active); in [25], > 39 µM (inactive); in [26], 1.48 µM (active); in test [27], 1.84 µM (active).
Regarding `Cc1ccccc1C(OCCN(C)C)c1ccccc1` (centres undefined) [ORPHENADRINE CITRATE], the results for the IC50 (in test [28]; in test [29]; in “cells”) were > 10 µM (inactive), > 10 µM (inactive) and > 33.3 µM (inactive), respectively.
